Where a name gives a salt, the structure may show the parent alone. Values belong to the molecule of their own block, whether it stands above or below them.
What was measured:
[1] = tested on: norepinephrine release from hippocampal synaptosomes; experiment: In vitro [3H]norepinephrine release from crude hippocampal synaptosomes; assay type: biochemical, rat
Protocol: In vitro neurotransmitter assays using crude synaptosome preparations were conducted by Gifford Biosciences Limited (Birmingham, UK) based on the previously described protocols ([Clarke and Reuben, 1996]; [Gifford et al., 2000]). In brief, male Sprague Dawley rats (200–225 g) were terminated by cervical dislocation followed by decapitation. The striatums or hippocampi were dissected and homogenized in ice-cold 0.32 M sucrose using a Dounce homogenizer. The homogenates were centrifuged at 100 x g for 5 min to pellet cell debris. The supernatants were collected and centrifuged at 17,000 x g for 10 min at 4°C to pellet crude synaptosomes. The pellets were resuspended in 5 ml Krebs buffer, pH 7.4 (in mM (pH 7.4): 120 NaCl, 3.3 KCl, 1.2 MgSO4, 1.3 CaCl2, 1.2 K2HPO4, 25 HEPES, 11 glucose, 0.01 ascorbic acid, 0.025 pargyline, and 0.1% BSA containing 2 μCi/ml [^3H]norepinephrine for hippocampal synaptosomes or 1 μCi/ml [^3H]dopamine for striatal synaptosomes and incubated for 15 min at 35°C with gentle shaking.
(§1) The [^3H]norepinephrine- or [^3H]dopamine-treated crude synaptosomes were loaded onto closed filter chambers containing Whatman® Grade GF/C Glass Microfiber filters (Sigma-Aldrich, Merck KGaA, Darmstadt, Germany) and placed in a superfusion system. Preoxygenated Krebs buffer was perfused through the chambers at a rate of 1 ml/min at 37 °C using an 8-channel peristaltic pump. To ensure an even flow over the synaptosomal bed, trapped air bubbles were removed from the filters prior to collection of the fractions. After a superfusion period of 40 min, three basal fractions (1.5 ml/fraction) were collected first, followed by three fractions (1.5 ml/fraction) containing the test compound. Two additional fractions were collected in the presence of 30 mM KCl to depolarize the synaptosomes. A 0.4-ml aliquot of each fraction was then transferred to a counting plate, and a scintillation cocktail was added to measure the radioactivity using a Wallac® TriLux 1450 MicroBeta counter (PerkinElmer Life Sciences, Zaventem, Belgium). Once all fractions were collected, the filters holding the crude synaptosome samples were removed and dried overnight at room temperature. On the following day, the scintillation cocktail was added and the filters were counted to determine residual radioactivity.
(§2) Compound-evoked release of neurotransmitters was calculated by subtracting the counts per minute (CPM) in the two basal fractions collected immediately prior to compound addition from those in the two fractions collected immediately following compound addition. The compound-evoked release was then expressed as a percentage of the basal release from that chamber. Potassium-evoked release was calculated by subtracting the CPM in the fraction immediately prior to KCl addition from the CPM in the […] immediately following potassium addition. Stimulated release was calculated as the percentage of basal release for that chamber. The increase in stimulated release above the baseline (no compound) release for that experimental run was determined, and the latter values were plotted on the graphs. Dose–response curves were determined using non-linear curve fitting in Prism (GraphPad Software, Inc, San Diego, CA, United States). All experiments were repeated at least three times.

C57Bl/6 mice = experiment: Tolerability test (body weight, body temperature, passive signs, manipulation responses); details: for BT (°C) naïve / Manipulations naïve / Passive naïve: baseline; for BW Day 1 / BW Day 2: mean ± SD; for tolerability: highest dose 10 mg/kg i.p.
Protocol: In brief, mice were single-housed prior to the test and evaluated for baseline body weight, body temperature, and other parameters. […] On day 1, the mice were i. p. injected with saline (vehicle) or a test compound at 10 ml/kg body weight. Then, body temperature was measured at 15 min, 4 h, and 24 h and body weight on days 1 and 2. Neurological and motor parameters were evaluated at 15 min, 2 h, and 4 h after administration. The list of parameters is provided in Supplementary Figure S1 in Supplementary Material S1.
In addition, within 5 min after the 15-min observation period, mice were placed in open-field chambers for 30 min to determine their general motor activity (distance traveled), ambulatory time, and number of rears. The open-field chambers were made of Plexiglas (27.3 × 27.3 × 20.3 cm; Med Associates Inc, St Albans, VT, United States) surrounded by infrared photobeam sources (16 × 16 × 16 beams). Horizontal activity (distance and time traveled) and vertical activity (number and frequency of rears) were measured by consecutive beam breaks. At the end of each open-field test session, the chambers were thoroughly cleaned with NOLVASAN® solution (Zoetis Services LLC, Parsippany, NJ, United States). Four mice were used per treatment condition. Mice were terminated after completion of the last tolerability observation.
All compounds were diluted in saline, and the pH was adjusted to approximately 7.0 with HCl or NaOH on the day of the experiment. […] The doses were calculated based on the free base molecular weight of the compounds.
For the tolerability tests, passive signs and manipulation responses were analyzed for effects of the treatment by the Kruskal–Wallis test. Body temperature and body weight data were analyzed by two-way repeated measures analysis of variance (ANOVA). The total distance and time traveled and number and frequency of rears in the open-field activity test were analyzed by one-way ANOVA, followed by the Tukey post-hoc test. For the analyses of the zebrafish NTT data, one-way ANOVA was used, followed by Dunnett’s multiple comparison test, if it passed the Shapiro-Wilk normality test. […] An effect was considered significant if p < 0.05. The half maximal effective concentration (EC50) and half-maximal inhibitory concentration (IC50) for the receptor pharmacology and neurotransmitter release assay were determined by using nonlinear regression analysis. Statistical analyses were conducted using GraphPad Prism.

[2] = tested on: dopamine release from striatal synaptosomes; experiment: In vitro [3H]dopamine release from crude striatal synaptosomes; assay type: biochemical, rat; details: for EC50: striatal synaptosomes
Protocol: In brief, male Sprague Dawley rats (200–225 g) were terminated by cervical dislocation followed by decapitation. The striatums or hippocampi were dissected and homogenized in ice-cold 0.32 M sucrose using a Dounce homogenizer. The homogenates were centrifuged at 100 x g for 5 min to pellet cell debris. The supernatants were collected and centrifuged at 17,000 x g for 10 min at 4°C to pellet crude synaptosomes.
as §1, with “Preoxygenated Krebs buffer was perfused through the chambers at a rate of 1 ml/min at 37 °C using an 8-channel peristaltic pump.” left out, “A 0.4-ml aliquot of each fraction was then transferred to a counting plate, and a scintillation cocktail was added to measure the radioactivity using a Wallac® TriLux 1450 MicroBeta counter (PerkinElmer Life Sciences, Zaventem, Belgium).” left out
as §2

[3] = tested on: zebrafish (Danio rerio; strain AB); experiment: Zebrafish novel tank test (NTT)
Protocol: Adult male and female wild-type zebrafish were treated with the compounds for 20 min in a final volume of 50 ml in a 250-ml treatment beaker one fish at a time. The fish were briefly rinsed in fresh system water, and then immediately transferred to a trapezoidal tank (14.6 cm height x 5.5 cm width x 27.9 cm top length and x 23.6 cm bottom length) filled with 1.5 L system water. The behavior of the fish was monitored for the next 5 min by using the Noldus EthoVision XT system (Wageningen, Netherlands), with the camera placed approximately 1 m from the test tank. The part of the tank filled with water (11.5 cm height) was virtually divided into top, center, and bottom of equal heights (approximately 3.8 cm per segment) for the analysis. The average time spent at the top and bottom portions of the tank was analyzed to determine the anxiety-like behavior of fish. The average total distance travelled and freezing time were calculated to determine the effects of the compounds on the general behavior of fish. Freezing was defined by a complete cessation of movement except for gills and eyes ([Kalueff et al., 2013]). A minimum of 12 fish (6 females and 6 males) per condition were used for the study. The experimenter was blind to the test conditions.
If not, the dose was reduced until no obvious signs of tolerability problems were observed. […] The concentrations were calculated based on the free base molecular weight. Buspirone—a clinical anxiolytic drug used acutely and chronically to investigate the change in the anxiety-like behavior ([Maximino, et al., 2011]; [Maximino, et al., 2013])—was included as a positive control.

Compound: O=C(N[C@H]1CN2CCC1CC2)c1ccc(Cl)cc1 [PNU282987]
change in norepinephrine release [1]: negligible change
BT (°C) naïve (C57Bl/6 mice; 1 mg/kg group): 36.48 ± 0.38 °C
Manipulations naïve (C57Bl/6 mice; 1 mg/kg group): 2.00 ± 1.63
Passive naïve (C57Bl/6 mice; 1 mg/kg group): 0.25 ± 0.50
BT (°C) 15min (C57Bl/6 mice; 1 mg/kg i.p.): 38.13 ± 0.15 °C
BT (°C) 4hr (C57Bl/6 mice; 1 mg/kg i.p.): 36.60 ± 0.18 °C
BT (°C) 24hr (C57Bl/6 mice; 1 mg/kg i.p.): 36.85 ± 0.66 °C
Manipulations 15min (C57Bl/6 mice; 1 mg/kg i.p.): 1.25 ± 1.26
Manipulations 2hr (C57Bl/6 mice; 1 mg/kg i.p.): 0.75 ± 0.50
Manipulations 4hr (C57Bl/6 mice; 1 mg/kg i.p.): 0.75 ± 0.96
Passive 15min (C57Bl/6 mice; 1 mg/kg i.p.): 0.50 ± 0.58
Passive 2hr (C57Bl/6 mice; 1 mg/kg i.p.): 0.00 ± 0.00
Passive 4hr (C57Bl/6 mice; 1 mg/kg i.p.): 0.00 ± 0.00
BW Day 1 (C57Bl/6 mice; 1 mg/kg i.p.): 24.03 ± 2.46
BW Day 2 (C57Bl/6 mice; 1 mg/kg i.p.): 23.78 ± 2.61
BT (°C) naïve (C57Bl/6 mice; 3 mg/kg group): 36.50 ± 0.24 °C
Manipulations naïve (C57Bl/6 mice; 3 mg/kg group): 0.75 ± 0.96
Passive naïve (C57Bl/6 mice; 3 mg/kg group): 0.25 ± 0.50
BT (°C) 15min (C57Bl/6 mice; 3 mg/kg i.p.): 37.85 ± 0.54 °C
BT (°C) 4hr (C57Bl/6 mice; 3 mg/kg i.p.): 36.63 ± 0.21 °C
BT (°C) 24hr (C57Bl/6 mice; 3 mg/kg i.p.): 36.40 ± 0.12 °C
Manipulations 15min (C57Bl/6 mice; 3 mg/kg i.p.): 0.75 ± 0.96
Manipulations 2hr (C57Bl/6 mice; 3 mg/kg i.p.): 0.50 ± 0.58
Manipulations 4hr (C57Bl/6 mice; 3 mg/kg i.p.): 0.25 ± 0.50
Passive 15min (C57Bl/6 mice; 3 mg/kg i.p.): 0.50 ± 0.58
Passive 2hr (C57Bl/6 mice; 3 mg/kg i.p.): 0.00 ± 0.00
Passive 4hr (C57Bl/6 mice; 3 mg/kg i.p.): 0.00 ± 0.00
BW Day 1 (C57Bl/6 mice; 3 mg/kg i.p.): 23.38 ± 0.54
BW Day 2 (C57Bl/6 mice; 3 mg/kg i.p.): 23.47 ± 0.57
BT (°C) naïve (C57Bl/6 mice; 10 mg/kg group): 36.73 ± 1.13 °C
Manipulations naïve (C57Bl/6 mice; 10 mg/kg group): 1.25 ± 0.96
Passive naïve (C57Bl/6 mice; 10 mg/kg group): 0.25 ± 0.50
BT (°C) 15min (C57Bl/6 mice; 10 mg/kg i.p.): 37.73 ± 0.46 °C
BT (°C) 4hr (C57Bl/6 mice; 10 mg/kg i.p.): 36.83 ± 0.59 °C
BT (°C) 24hr (C57Bl/6 mice; 10 mg/kg i.p.): 36.10 ± 0.52 °C
Manipulations 15min (C57Bl/6 mice; 10 mg/kg i.p.): 0.50 ± 0.58
Manipulations 2hr (C57Bl/6 mice; 10 mg/kg i.p.): 0.25 ± 0.50
Manipulations 4hr (C57Bl/6 mice; 10 mg/kg i.p.): 0.50 ± 0.58
Passive 15min (C57Bl/6 mice; 10 mg/kg i.p.): 0.00 ± 0.00
Passive 2hr (C57Bl/6 mice; 10 mg/kg i.p.): 0.00 ± 0.00
Passive 4hr (C57Bl/6 mice; 10 mg/kg i.p.): 0.00 ± 0.00
BW Day 1 (C57Bl/6 mice; 10 mg/kg i.p.): 23.62 ± 1.10
BW Day 2 (C57Bl/6 mice; 10 mg/kg i.p.): 22.94 ± 1.25
tolerability (C57Bl/6 mice): well tolerated
dopamine release ([2]; at higher concentrations): 20–30%

Compound: O=C(c1ccc(Cl)o1)N1CC2CNCC2C1 (stereo not drawn) [AZD1446, 3-(5-chloro-2-furoyl)-3,7-diazabicyclo[3.3.0]octane]
change in norepinephrine release [1]: negligible change
tolerability (C57Bl/6 mice): well tolerated
EC50 [2]: 8.4 µM

freezing time ([3]; 100 mg/L): increased
total distance traveled ([3]; 100 mg/L): decreased
Compound: O=C1CC2(CCCC2)CC(=O)N1CCCCN1CCN(c2ncccn2)CC1 [buspirone, buspirone hydrochloride]
time spent at the top ([3]; all three doses tested (10, 30, and 100 mg/L)): increased the time spent at the top
time spent at the bottom ([3]; middle two doses (10 and 30 mg/L)): reduced the time spent at the bottom

Compound: CC(=O)OCC[N+](C)(C)C [acetylcholine]
EC50 ([1]; hippocampal synaptosomes): 13.5 µM
EC50 [2]: 0.27 µM

Reference: article PMC8980233, “Differentiating the Neuropharmacological Properties of Nicotinic Acetylcholine Receptor-Activating Alkaloids” (Frontiers in Pharmacology, 2022)
